This note sets out measurements from paper PMC11874377, “Fungal-derived methyldeoxaphomins target Plasmodium falciparum segregation through the inhibition of PfActin1” (Proceedings of the National Academy of Sciences of the …, 2025).

For data set [1], the system named is P. falciparum. In words: Parasite reduction ratio (PRR). The format is cell-based, Plasmodium falciparum. As to conditions: 10 × EC50. The method, then: After a 24 h lag phase, only 10^0.64 parasites are killed within the first replication cycle (48 h). […] We also examined the in vitro killing rate in Dd2 through flow cytometric analysis. […]
Parasite reduction ratio adapted from protocol by Sanz et al (Sanz et al., 2012). In brief, early ring stage mono-infected RBCs at 106 were incubated with a 10 x EC50 concentration of NPDG-F, DHA, or atovaquone for either 24, 48, 72, 96, or 120 h. Following incubations, cells were washed and serially diluted. After 3 weeks, growth was determined via SYBR […]
Green I staining. […]

Data set [2] relates to P. falciparum. Description: Isobologram assay with NPDG-F. It is filed as cell-based, Plasmodium falciparum. As to conditions: for IC50: single compounds, dose–response, Fig. 3A, read-out: Mean IC50 ± SEM; for relationship with NPDG-F at low concentrations: low / very low concentrations; for relationship with NPDG-F at higher concentrations: moderate to high / higher concentrations. The method, then: To further explore the relationship of NPDG-F with established actin-interfering drugs, an isobologram study was performed (Fig. 3). NPDG-F was added in combination with four inhibtors known to interfere with actin polymerization including a formin inhibitor SMIFH2, cofilin inhibitor SZ-3, F-actin targeting compound jasplakinolide, and G-actin targeting latrunculin B. The frontline antimalarial DHA was also added as a nonactin inhibitor control. After dose–response curves were generated (Fig. 3A), the fractional inhibitory concentrations (FICs) of NPDG-F and the combination drug were calculated and graphed. […]
(§1) Plasmodium blood stage culture
(§2) Parasite culture in the Chakrabarti lab was maintained following a modified Trager and Jensen protocol (Trager & Jensen, 1976) as previously described (Lee et al., 2021) with RPMI 1640 with 25 mM HEPES pH 7.4, 26 mM NaHCO3, 15 mg/L hypoxanthine, 0.5% Albumax II, 25 mg/L gentamycin, and 2% dextrose. Parasites were grown with human A+ erythrocytes obtained from Florida OneBlood. Cultures were kept in an incubator with 5% […]
(§3) Antiplasmodial activity screening
SYBR Green I-based fluorescence assay was performed as previously described (Lee et al., 2021) following protocols by Smilkstein et. al. (Smilkstein et al., 2004). Asynchronous Dd2 parasites were added to serially diluted compounds and incubated for 72 h at 5% CO2, 95% air at 37°C. Plates were then frozen at -80°C, thawed, and incubated for one hour with 1x SYBR Green I in a lysis buffer (20 mM Tris-HCL, 0.08% saponin, 5 mM EDTA, and 0.8% Triton X-100). Fluorescence was then read on a Synergy Neo2 multimode reader (BioTek Winsooki, VT). Compound dose response curves and EC50 determination was performed using CDD Vault normalized to 10 µM CQ and vehicle […]
For isobologram assessment, inhibitors were tested using a 1:2 dilution with starting concentrations selected as 40 nM for DHA, 100 µM Latrunculin B, 100 µM SMIFH2, and 40 nM for jasplakinolide. These concentrations were selected to provide 2-3 points above […]
EC50s. The test inhibitor methyldeoxaphomin NPDG-F was then added in combination with the aforementioned inhibitors at concentrations ranging from 10 to 0.3125 µM. Dose-response curves were then generated for the available conditions where EC50s could be determined. The fractional inhibitor concentration of both compounds was then determined as described (Fivelman et al., 2004) for the available points and graphed on a scale of 0-1 also using Graphpad Prism version 10. […]

For data set [3], the system named is P. falciparum multidrug resistant line Dd2. In words: SYBR Green I-based antiplasmodial assay, asexual blood stage, Dd2. The format is cell-based, Plasmodium falciparum. The method, then: (§4) The antiplasmodial activity of these analogs was assessed in P. falciparum asexual blood stage using a SYBR Green I-based assay. Compounds were tested in both the multidrug resistant line Dd2, and the chloroquine-sensitive line 3D7, to probe any potential for preexisting resistance. […] These methyldeoxaphomin analogs were also cross-screened for cytotoxicity in the human cell line HepG2 to determine their selectivity for the Plasmodium parasite. […] This effect was maintained with analog NPDG-F where both R1 and R2 were substituted with OH groups. […] In addition, the hydroxyl group at carbon 7 seems to be critical for function as a drastic loss of potency was found in NPDG-D as compared to B and C. […]
as §1, §2, §3
(§5) SYBR Green I-based fluorescence assay was performed as previously described (Lee et al., 2021) following protocols by Smilkstein et. al. (Smilkstein et al., 2004). Asynchronous Dd2 parasites were added to serially diluted compounds and incubated for 72 h at 5% CO2, 95% air at 37°C. Plates were then frozen at -80°C, thawed, and incubated for one hour with 1x SYBR Green I in a lysis buffer (20 mM Tris-HCL, 0.08% saponin, 5 mM EDTA, and 0.8% Triton X-100). Fluorescence was then read on a Synergy Neo2 multimode reader (BioTek Winsooki, VT). […]

Data set [4] relates to P. falciparum chloroquine-sensitive line 3D7. Description: SYBR Green I-based antiplasmodial assay, asexual blood stage, 3D7. The format is cell-based, Plasmodium falciparum. The method, then: as §4, §1, §2, §3, §5
For data set [5], the system named is human HepG2 hepatoma cells. Description: cells. The format is cell-based. The method, then:
as §4
Cytotoxicity was assessed using an MTS (3-(4,5-Dimethylthiazol-2-yl)-5-(3-carboxymethoxyphenyl)-2-(4-sulfophenyl)-2H-tetrazolium) absorbance assay with human HepG2 hepatoma cells. Cells were maintained in MEM supplemented with 10%FBS, 1% Antibiotic/Antimycotic, 1 mM sodium pyruvate, and 0.15% sodium bicarbonate in a 5 % CO2, 95% air environment at 37°C. For the assay cells were seeded at a density of 2,250 cells per well on 384-well microtiter plates 24 h prior to compound addition. Following a 48-h incubation with compounds, MTS solution was added to wells and absorbance was read after 2-4 h on a Synergy Neo2 multimode reader (BioTek Winsooki, VT). Compound dose response curves and EC50 determination was performed using CDD Vault normalized to 5% triton and vehicle controls. […]

The mark [6] stands for this setting: Plasmodium falciparum, DD2, 72 h, read-out: Dd2 EC50, means from triplicate experiments ± SEM, 72 h.
[7] abbreviates: Plasmodium falciparum, DD2, read-out: Dd2: Average EC50, average ± SEM of three replicates.
The mark [8] stands for this setting: Plasmodium falciparum, DD2, read-out: Dd2: EC50, individual replicates.
Where [9] appears, read: Plasmodium falciparum, 3D7, average ± SEM of three replicates, read-out: 3D7: Average EC50.
Setting [10] is: Plasmodium falciparum, 3D7, individual replicates, read-out: 3D7: EC50.
Setting [11] is: Plasmodium falciparum, 3D7, means from triplicate experiments ± SEM, read-out: 3D7 EC50.
Setting [12] is: Homo sapiens, HepG2, 48 h, means from triplicate experiments ± SEM, 48-h incubation, read-out: HepG2 EC50.
The mark [13] stands for this setting: Homo sapiens, HepG2, average ± SEM of three replicates, read-out: HepG2: Average EC50.
The mark [14] stands for this setting: Homo sapiens, HepG2, individual replicates, read-out: HepG2: EC50.
Setting [15] is: individual replicates, read-out: HepG2: EC50.

Where “and” joins values, the source holds several entries; their conditions need not be identical. Identical values can stand only once. Like-named read-outs stand apart in the source and are kept apart here. Where only a bound is given, the exact number is not on record here.

On to `C[C@H]1[C@@H](O)O[C@@H]2O[C@@]3(C)CC[C@H]4[C@H](C)CC[C@@H]1[C@@]24OO3` [DHA, dihydroartemisinin], for which, in the data set on P. falciparum [1], the “99.9% PCT (parasite clearance time)” value is 32.5 h and the lag phase was determined as 0 h. Further, the IC50 with P. falciparum [2] (Plasmodium falciparum) is 0.005 ± 0.001 µM. Moreover, in the data set on P. falciparum [2], the “relationship with NPDG-F at low concentrations” value was “somewhat synergistic” and the “relationship with NPDG-F at higher concentrations” value is reported as “antagonistic”.
`C=C1[C@@H](C)[C@H]2[C@H](Cc3ccccc3)NC(=O)[C@]23C(=O)/C=C/C(=O)C[C@@H](C)C[C@H](C)C/C=C/[C@H]3[C@@H]1O` [Methyldeoxaphomin NPDG-A]: the EC50 in data set [3] (setting [6]), in data set [3] (setting [7]), in data set [3] (setting [8]), in data set [4] (setting [9]), in data set [4] (setting [10]) and in data set [4] (setting [11]) was greater than 5000 nM in each case. For the same compound, the EC50 in data set [5] (setting [12]), in data set [5] (setting [13]) and in data set [5] (setting [14]) was greater than 25 µM in each case. Besides, the “cytotoxicity in HepG2 at the highest concentration tested” value in data set [5] (25 µM) is “no inhibition”.
For the compound `CC1CC=CC2C=C(CO)C(C)C3C(Cc4ccccc4)NC(=O)C23C(=O)C=CC(=O)C(O)C(C)C1` (stereo not shown) [Methyldeoxaphomin NPDG-D], the EC50 in data set [3] (setting [6]), in data set [3] (setting [7]), in data set [3] (setting [8]), in data set [4] (setting [9]), in data set [4] (setting [10]) and in data set [4] (setting [11]) was greater than 5000 nM each time. The concentration for a half-maximal effect (EC50) came out at 8.2 µM in data set [5] (setting [12]), 8.2 ± 0.07 µM in data set [5] (setting [13]), 8.3 µM in data set [5] (setting [14]) and 8.1 µM in data set [5] (setting [15]).
Regarding `C=C1C(C)C2C(Cc3ccccc3)NC(=O)C23C(=O)C=CC(O)CC(C)CC(C)CC=CC3C1O` (stereo not shown) [Methyldeoxaphomin NPDG-E], the EC50 in data set [3] (setting [6]) is 2600 nM; in data set [3] (setting [7]) it was 2600 ± 310 nM; in data set [3] (setting [8]), 2220 nM; in data set [3] (read-out: Dd2: EC50, individual replicates), 3180 nM and 2280 nM; in data set [4] (setting [9]), 2800 ± 140 nM; in data set [4] (setting [10]), 2670 nM. Also, the EC50 in data set [4] (setting [11]) is 2800 ± 140 nM; in data set [4] (individual replicates, read-out: 3D7: EC50) it was 2600 nM and 3040 nM; in data set [5] (setting [12]), 23 µM; in data set [5] (setting [13]), 23 ± 0.92 µM; in data set [5] (setting [14]), 21.3 µM; in data set [5] (setting [15]), 24.7 µM and 23.2 µM. For the same compound, in data set [5] (HepG2 EC50/(mean of Dd2 EC50, 3D7 EC50)), the “Selectivity Index (SI)” value came to 9.
For `O=C1NC(=S)N(c2cccc(Br)c2)C(=O)/C1=C/c1ccco1` [SMIFH2], in the data set with P. falciparum [2], the “relationship with NPDG-F at low concentrations” value is “primarily indifferent”, the “relationship with NPDG-F at higher concentrations” value is “antagonistic” and the IC50 stood at 11.3 ± 1.35 µM.
Turning to `O=C1C(O)=C([C@H]2CC[C@H](c3ccc(Cl)cc3)CC2)C(=O)c2ccccc21` [atovaquone], in the data set with P. falciparum [1], the “99.9% PCT (parasite clearance time)” value was “more than 96 h”, the lag phase is 24 h and the “log(PRR)” value was determined as 5.12.
Take `C/C1=C/C(=O)O[C@@H]2C[C@@H](CC[C@H](C)/C=C\CC1)O[C@@](O)([C@@H]1CSC(=O)N1)C2` [latrunculin B]: in the data set on P. falciparum [2] (combination with NPDG-F), the “fractional inhibitory concentration (FIC)” value is on record as “highest FIC values overall”. In the data set on P. falciparum [2], the IC50 turned out to be 34.1 ± 1.51 µM.

In general, IC50 refers to the midpoint of a concentration-inhibition curve. Usually EC50 stands for the concentration that produces a half-maximal response.
